# Target: skeletal myofibrils (myosin ATPase)
# Assay: Skeletal Myofibril ATPase Assay
# Assay type: biochemical
# Details: Table 4A
# Procedure: Example 12. Skeletal Myofibril ATPase Assay
# Overview: Myosin ATPase activity is assessed by using a coupled reaction system, in which ADP generated by the myosin ATPase function is coupled to the disappearance of NADH through the pyruvate kinase/lactate dehydrogenase (PK-LDH) system. ATPase activity produces ADP, which is used as a substrate for PK to produce pyruvate and regenerate ATP. The pyruvate is then used as a substrate by LDH to oxidize NADH to NAD+. The rate of the reaction is monitored through the time-dependent disappearance of NADH using absorbance at 340 nm. Inhibition of ATPase activity by the assayed compounds is indicated by a reduced rate of NADH loss, relative to vehicle-treated controls, over the experimental time window. To assess the selectivity of the assayed compounds for skeletal myofibrils, the compounds are counter-screened in cardiac myofibrils.
# Materials: The following stock solutions and reagents were used in the Skeletal Myofibril ATPase Assay:
# Stock Solutions of pCa buffer. Combine PIPES, CaCl2, and EGTA solutions with 70 mL of water. Adjust pH to 7.0 and bring final volume to 100 mL.
# Buffer A & Buffer B. Buffers were stored on ice until use.
# Skeletal Myofibril ATPase Assay Procedure: BSA, ATP, NADH, PEP, and DTT solutions were thawed at room temperature, then transferred to ice. Pellet-frozen myofibrils were transferred with approximately twice the required volume into a sufficiently large tube and capped. Myofibrils were thawed by rolling in a water bath for approximately 15 min at room temperature and cooled on ice. Buffers A and B were prepared by adjusting volumes as necessary for required number of wells and stored on ice. 0.5 μL of the compounds to be assayed were added into wells. 25 μL of Buffer A was dispensed into the wells, followed by 25 μL of Buffer B. The wells were measured for absorbance at 340 nm, using a kinetic protocol in which the wells are read every 1.5-2 min for 45 min. The slope of the data was approximated by subtracting the minimum absorbance value from the maximum value for each well. This was accomplished either in the SoftMax Pro software or in a spreadsheet program such as Excel. Using GraphPad Prism 8.0, the data was normalized by assigning a value of 100% to the 1% DMSO vehicle wells. Typically, a normalized 0% value was simply assigned to a (Max−Min) value of 0. The normalized data was fit to a Four Parameter Logistic sigmoidal equation, constraining the bottom to be 0 or greater. Compounds of Table 1, 2, and 3 were tested and results of the assay appear in Tables 4a-4c. A=IC50 is less than or equal to 10 μM; B═IC50 is greater than 10 μM and less than 100 μM; C═IC50 is greater than 100 μM.
row,Compound,IC50
1,"CC(C)[C@@](C)(C#N)NC(=O)Cn1nc(-c2ccc(OC(F)F)nc2)ccc1=O (stereo in doubt) [Compound I-34, N-(2-cyano-3-methylbutan-2-yl)-2-(3-(6-(difluoromethoxy)pyridin-3-yl)-6-oxopyridazin-1(6H)-yl)acetamide]",10 to 100 µM
2,"O=C(Cn1nc(-c2ccc(OC(F)F)nc2)ccc1=O)NC1CCC1 [Compound I-4, N-cyclobutyl-2-(3-(6-(difluoromethoxy)pyridin-3-yl)-6-oxopyridazin-1(6H)-yl)acetamide]",< 10 µM
3,"CCNC(=O)Cn1nc(-c2ccc(N3CC(F)(F)C3)nc2)ccc1=O [Compound I-6, 2-(3-(6-(3,3-difluoroazetidin-1-yl)pyridin-3-yl)-6-oxopyridazin-1(6H)-yl)-N-ethylacetamide]",10 to 100 µM
4,"CCNC(=O)Cn1nc(-c2cnc(OCC(F)(F)F)nc2)ccc1=O [Compound I-8, N-ethyl-2-(6-oxo-3-(2-(2,2,2-trifluoroethoxy)pyrimidin-5-yl)pyridazin-1(6H)-yl)acetamide]",< 10 µM
5,"CCNC(=O)Cn1nc(-c2ccc(OCCC(F)(F)F)nc2)ccc1=O [Compound I-10, N-ethyl-2-[6-oxo-3-[6-(3,3,3-trifluoropropoxy)pyridin-3-yl]-1,6-dihydropyridazin-1-yl]acetamide]",10 to 100 µM
6,"O=C(Cn1nc(-c2ccc(OC(F)F)nc2)ccc1=O)NC12CC(C1)C2 [Compound I-11, N-(bicyclo[1.1.1]pentan-1-yl)-2-(3-(6-(difluoromethoxy)pyridin-3-yl)-6-oxopyridazin-1(6H)-yl)acetamide]",10 to 100 µM
7,"CC1(NC(=O)Cn2nc(-c3ccc(OC(F)F)nc3)ccc2=O)CCC1 [Compound I-15, 2-(3-(6-(difluoromethoxy)pyridin-3-yl)-6-oxopyridazin-1(6H)-yl)-N-(1-methylcyclobutyl) acetamide]",10 to 100 µM
8,"O=C(Cn1nc(-c2ccc(OC(F)F)nc2)ccc1=O)N[C@H]1CC12CC2 [Compound I-17, (S)-2-(3-(6-(difluoromethoxy)pyridin-3-yl)-6-oxopyridazin-1(6H)-yl)-N-(spiro[2.2]pentan-1-yl)acetamide]",10 to 100 µM
9,"CCNC(=O)Cn1nc(-c2ccc(N3CC(C)(C)C3)nc2)ccc1=O [Compound I-18, 2-(3-(6-(3,3-dimethylazetidin-1-yl)pyridin-3-yl)-6-oxopyridazin-1(6H)-yl)-N-ethylacetamide]",10 to 100 µM
10,"CCNC(=O)Cn1nc(-c2ccc(N3CCC34COC4)nc2)ccc1=O [Compound I-19, 2-(3-(6-(6-oxa-1-azaspiro[3.3]heptan-1-yl)pyridin-3-yl)-6-oxopyridazin-1(6H)-yl)-N-ethylacetamide]",10 to 100 µM
11,"CCC(C)(C)NC(=O)Cn1nc(-c2ccc(OC(F)F)nc2)ccc1=O [Compound I-20, 2-(3-(6-(difluoromethoxy)pyridin-3-yl)-6-oxopyridazin-1(6H)-yl)-N-(tert-pentyl)acetamide]",10 to 100 µM
12,"CCNC(=O)Cn1nc(-c2ccc(OCC3(C)COC3)nc2)ccc1=O [Compound I-24, N-ethyl-2-(3-(6-((3-methyloxetan-3-yl)methoxy)pyridin-3-yl)-6-oxopyridazin-1(6H)-yl)acetamide]",10 to 100 µM
13,"C[C@H](NC(=O)Cn1nc(-c2ccc(OC(F)F)nc2)ccc1=O)c1ccnn1C [Compound I-29, (S)-2-(3-(6-(difluoromethoxy)pyridin-3-yl)-6-oxopyridazin-1(6H)-yl)-N-(1-(1-methyl-1H-pyrazol-5-yl)ethyl)acetamide]",> 100 µM
14,"CCNC(=O)Cn1nc(-c2ccc(N3CC4(COC4)C3)nc2)ccc1=O [Compound I-31, 2-(3-(6-(2-oxa-6-azaspiro[3.3]heptan-6-yl)pyridin-3-yl)-6-oxopyridazin-1(6H)-yl)-N-ethylacetamide]",> 100 µM
15,"CCNC(=O)Cn1nc(-c2ccc(N3CC4(C3)CS(=O)(=O)C4)nc2)ccc1=O [Compound I-32, 2-(3-(6-(2,2-dioxido-2-thia-6-azaspiro[3.3]heptan-6-yl)pyridin-3-yl)-6-oxopyridazin-1(6H)-yl)-N-ethylacetamide]",> 100 µM
16,"O=C(Cn1nc(-c2ccc(OC(F)F)nc2)ccc1=O)NC1CC(F)(F)C1 [Compound I-33, N-(3,3-difluorocyclobutyl)-2-(3-(6-(difluoromethoxy)pyridin-3-yl)-6-oxopyridazin-1(6H)-yl)acetamide]",> 100 µM
17,"CC(C)(C#N)NC(=O)Cn1nc(-c2ccc(OC(F)F)nc2)ccc1=O [Compound I-35, N-(2-cyanopropan-2-yl)-2-(3-(6-(difluoromethoxy)pyridin-3-yl)-6-oxopyridazin-1(6H)-yl)acetamide]",10 to 100 µM

# Further lines, results first:
row,IC50,Compound
1,< 10 µM,"CCNC(=O)Cn1nc(-c2cnc(Nc3ccc(Cl)cc3)nc2)ccc1=O [Compound I-1, 2-(3-(2-((4-chlorophenyl)amino)pyrimidin-5-yl)-6-oxopyridazin-1(6H)-yl)-N-ethylacetamide]"
2,< 10 µM,"CCNC(=O)Cn1nc(-c2cnc(Nc3ccc(F)cc3)nc2)ccc1=O [Compound I-2, N-ethyl-2-(3-(2-((4-fluorophenyl)amino)pyrimidin-5-yl)-6-oxopyridazin-1(6H)-yl)acetamide]"
3,< 10 µM,"COc1ccc(-c2ccc(=O)n(CC(=O)NCc3ccccc3Cl)n2)cn1 [Compound I-5, N-(2-chlorobenzyl)-2-(3-(6-methoxypyridin-3-yl)-6-oxopyridazin-1(6H)-yl)acetamide]"
4,< 10 µM,"CCNC(=O)Cn1nc(-c2ccc(OC(F)F)nc2)ccc1=O [Compound I-7, 2-[3-[6-(difluoromethoxy)pyridin-3-yl]-6-oxo-1,6-dihydropyridazin-1-yl]-N-ethylacetamide]"
5,10 to 100 µM,"CCNC(=O)Cn1nc(-c2ccc(C3CC3)nc2)ccc1=O [Compound I-12, 2-(3-(6-cyclopropylpyridin-3-yl)-6-oxopyridazin-1(6H)-yl)-N-ethylacetamide]"
6,10 to 100 µM,"CCNC(=O)Cn1nc(-c2ccc(OCC(F)(F)F)nc2)ccc1=O [Compound I-13, N-ethyl-2-(6-oxo-3-(6-(2,2,2-trifluoroethoxy)pyridin-3-yl)pyridazin-1(6H)-yl)acetamide]"
7,10 to 100 µM,"CCNC(=O)Cn1nc(-c2ccc(OC(F)(F)F)nc2)ccc1=O [Compound I-14, N-ethyl-2-(6-oxo-3-(6-(trifluoromethoxy)pyridin-3-yl)pyridazin-1(6H)-yl)acetamide]"
8,10 to 100 µM,"COc1ccc(-c2ccc(=O)n(CC(=O)NC(C)C)n2)cn1 [Compound I-16, N-isopropyl-2-(3-(6-methoxypyridin-3-yl)-6-oxopyridazin-1(6H)-yl)acetamide]"
9,10 to 100 µM,"CCNC(=O)Cn1nc(-c2ccc(Oc3ccc(F)cc3)nc2)ccc1=O [Compound I-21, N-ethyl-2-(3-(6-(4-fluorophenoxy)pyridin-3-yl)-6-oxopyridazin-1(6H)-yl)acetamide]"
10,10 to 100 µM,"CCNC(=O)Cn1nc(-c2ccc(OCC3COC3)nc2)ccc1=O [Compound I-22, N-ethyl-2-(3-(6-(oxetan-3-ylmethoxy)pyridin-3-yl)-6-oxopyridazin-1(6H)-yl)acetamide]"
11,10 to 100 µM,"CCNC(=O)Cn1nc(-c2ccc(OCC3(F)COC3)nc2)ccc1=O [Compound I-23, N-ethyl-2-(3-(6-((3-fluorooxetan-3-yl)methoxy)pyridin-3-yl)-6-oxopyridazin-1(6H)-yl)acetamide]"
12,> 100 µM,"CCNC(=O)Cn1nc(-c2ccc(OC3COC3)nc2)ccc1=O [Compound I-25, N-ethyl-2-(3-(6-(oxetan-3-yloxy)pyridin-3-yl)-6-oxopyridazin-1(6H)-yl)acetamide]"
13,> 100 µM,"CCNC(=O)Cn1nc(-c2ccc(OCCN(C)C)nc2)ccc1=O [Compound I-26, 2-(3-(6-(2-(dimethylamino)ethoxy)pyridin-3-yl)-6-oxopyridazin-1(6H)-yl)-N-ethylacetamide]"
14,> 100 µM,"CCNC(=O)Cn1nc(-c2ccc(OC(C)C)nc2)ccc1=O [Compound I-27, N-ethyl-2-(3-(6-isopropoxypyridin-3-yl)-6-oxopyridazin-1(6H)-yl)acetamide]"
15,> 100 µM,"CCNC(=O)Cn1nc(-c2ccc(OCCCN(C)C)nc2)ccc1=O [Compound I-28, 2-(3-(6-(3-(dimethylamino)propoxy)pyridin-3-yl)-6-oxopyridazin-1(6H)-yl)-N-ethylacetamide]"
16,> 100 µM,"Cn1nccc1CNC(=O)Cn1nc(-c2ccc(OC(F)F)nc2)ccc1=O [Compound I-30, 2-(3-(6-(difluoromethoxy)pyridin-3-yl)-6-oxopyridazin-1(6H)-yl)-N-((1-methyl-1H-pyrazol-5-yl)methyl)acetamide]"

# Same assay, conditions: Table 4C
row,IC50,Compound
1,< 10 µM,COc1ccc(-c2ccc(=O)n(CC(=O)NCc3cc(Cl)ccc3Cl)n2)cc1

# — patent US20230293518A1 (Edgewise Therapeutics, Inc., priority 2020, published 2023)
